In patent US9464084B2, “P2X7 modulators” (Janssen Pharmaceutica NV, priority 2013, dated 2016):

biological target: P2X7 (Homo sapiens (Human), UniProt Q99572); assay: P2X7 antagonism in human PBMCs (LPS + Bz-ATP induced IL-1β release, ELISA); assay type: cell-based; conditions: compound 1 μM, LPS 30 ng/ml, Bz-ATP 0.5 mM;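 also: PBMCs from donor human blood, with a further 1.5 h incubation of the cells in the assay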
Sequence (Q99572 whole entry): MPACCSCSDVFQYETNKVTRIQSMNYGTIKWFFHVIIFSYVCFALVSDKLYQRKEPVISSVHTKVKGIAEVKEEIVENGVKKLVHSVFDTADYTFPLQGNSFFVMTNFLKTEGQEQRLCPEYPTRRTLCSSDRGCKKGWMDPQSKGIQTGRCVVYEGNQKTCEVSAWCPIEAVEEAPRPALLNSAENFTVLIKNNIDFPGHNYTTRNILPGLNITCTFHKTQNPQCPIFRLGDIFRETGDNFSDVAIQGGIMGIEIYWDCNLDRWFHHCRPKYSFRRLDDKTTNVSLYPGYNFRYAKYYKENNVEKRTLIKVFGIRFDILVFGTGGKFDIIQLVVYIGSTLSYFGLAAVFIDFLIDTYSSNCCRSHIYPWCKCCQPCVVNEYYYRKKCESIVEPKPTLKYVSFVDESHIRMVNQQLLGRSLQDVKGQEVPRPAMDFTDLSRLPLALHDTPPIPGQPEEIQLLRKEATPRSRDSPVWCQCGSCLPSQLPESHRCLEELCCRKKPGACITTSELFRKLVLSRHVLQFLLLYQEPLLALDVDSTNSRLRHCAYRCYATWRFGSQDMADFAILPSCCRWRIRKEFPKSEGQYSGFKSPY
Procedure: Human blood was collected using a blood donor program. PBMCs were isolated from blood using a Ficoll density gradient technique. Briefly, blood was laid on Ficoll solution and centrifuged at RT for 20 minutes at 2000 rpm. The buffy layer (between red blood cells and plasma) was carefully collected by aspiration, washed with PBS and centrifuged again at 1500 rpm for 15 minutes. The resulting cell pellet was washed and plated on 96 well-plates for experiments. For the Mouse/Human Whole Blood experiments, 150 μl of either mouse or human blood was platted on 96 well-plates. Lipopolysaccharide (LPS) (30 ng/ml) was added to each well and incubated for 1 hour. Test compounds were then added and incubated for 30 minutes. The P2X7 agonist, 2′(3′)-O-(4-benzoylbenzoyl) adenosine 5′ triphosphate (Bz-ATP) was then added at a final concentration of 0.5 mM (PBMC) or 1 mM (blood). Cells were incubated for an additional 1.5 hours. At that point, supernatant was collected and stored for IL-1β assay using manufacturer's protocol for enzyme-linked immunosorbent assay (ELISA). Data was expressed as percent control, where control is defined as the difference in IL-1β release in LPS+Bz-ATP samples and LPS only samples. Data was plotted as response (% control) versus concentration to generate IC50 values.

Row | Structure (SMILES) | PBMC 1 μM (% control)
1 | CC1(C)Cc2cccc(C(=O)N3CCc4c(ncn4-c4ccccc4)C3)c2O1 [Example 52, 5-[(2,2-Dimethyl-2,3-dihydro-1-benzofuran-7-yl)carbonyl]-1-phenyl-4,5,6,7-tetrahydro-1H-imidazo[4,5-c]pyridine] | 98.9 % control
2 | O=C(c1cccc(Cl)c1Cl)N1CCc2ncn(-c3ccccn3)c2C1 [Example 9, (2,3-Dichlorophenyl)(3-(pyridin-2-yl)-6,7-dihydro-3H-imidazo[4,5-c]pyridin-5(4H)-yl)methanone] | 83.7 % control
3 | O=C(c1cccc2c1OC(F)(F)O2)N1CCc2c(ncn2-c2ccccc2)C1 [Example 50, 5-[(2,2-Difluoro-1,3-benzodioxol-4-yl)carbonyl]-1-phenyl-4,5,6,7-tetrahydro-1H-imidazo[4,5-c]pyridine] | 96.0 % control

The next lines start with the values.

Row | PBMC 1 μM (% control) | Structure (SMILES)
4 | 6.5 % control | CC1c2ncn(-c3ccccn3)c2CCN1C(=O)c1cccc(C(F)(F)F)c1Cl (centres unmarked) [Example 17, (2-Chloro-3-(trifluoromethyl)phenyl)(4-methyl-1-(pyridin-2-yl)-6,7-dihydro-1H-imidazo[4,5-c]pyridin-5(4H)-yl)methanone]
5 | 6.1 % control | O=C(c1cccc(C(F)(F)F)c1Cl)N1CCc2c(nnn2-c2cnccn2)C1 [Example 91, 5-{[2-Chloro-3-(trifluoromethyl)phenyl]carbonyl}-1-pyrazin-2-yl-4,5,6,7-tetrahydro-1H-[1,2,3]triazolo[4,5-c]pyridine]
6 | 102.6 % control | C[C@@H]1c2nnn(-c3cnccn3)c2CCN1C(=O)c1cccc(C(F)(F)F)c1Cl (single isomer, unassigned) [Example 74, (4R*)-5-{[2-Chloro-3-(trifluoromethyl)phenyl]carbonyl}-4-methyl-1-pyrazin-2-yl-4,5,6,7-tetrahydro-1H-[1,2,3]triazolo[4,5-c]pyridine]

same assay, conditions: compound 10 μM, LPS 30 ng/ml, Bz-ATP 0.5 mM

Row | Structure (SMILES) | PBMC 10 μM (% control)
7 | C[C@@H]1c2nnn(-c3ccn[nH]3)c2C[C@H](C)N1C(=O)c1cccc(C(F)(F)F)c1Cl [Example 310, (2-chloro-3-(trifluoromethyl)phenyl)((4R,6S)-4,6-dimethyl-1-(1H-pyrazol-5-yl)-6,7-dihydro-1H-[1,2,3]triazolo[4,5-c]pyridin-5(4H)-yl)methanone] | 12.2 % control
8 | C[C@H]1c2nnn(-c3cnccn3)c2CCN1C(=O)c1ccc(F)c(Cl)c1Cl (single isomer, unassigned) [Example 144, (S*)-(2,3-Dichloro-4-fluorophenyl)(4-methyl-1-(pyrazin-2-yl)-6,7-dihydro-1H-[1,2,3]triazolo[4,5-c]pyridin-5(4H)-yl)methanone] | 19.6 % control
9 | C[C@@H]1Cc2c(nnn2-c2ccn[nH]2)[C@@H](C)N1C(=O)c1cccc(C(F)(F)F)c1Cl [Example 320, (2-chloro-3-(trifluoromethyl)phenyl)((4R,6R)-4,6-dimethyl-1-(1H-pyrazol-5-yl)-6,7-dihydro-1H-[1,2,3]triazolo[4,5-c]pyridin-5(4H)-yl)methanone] | −19.7 % control
10 | CC1Cc2c(nnn2-c2ccc(F)cc2)C(C)N1C(=O)c1cccc(C(F)(F)F)c1Cl (centres unmarked) [Example 243, (2-Chloro-3-(trifluoromethyl)phenyl)(1-(4-fluorophenyl)-4,6-dimethyl-6,7-dihydro-1H-[1,2,3]triazolo[4,5-c]pyridin-5(4H)-yl)methanone] | 1.0 % control
11 | CC1c2ncn(-c3ccc(F)cn3)c2CCN1C(=O)c1ccc(C(C)(C)C)cc1 (centres unmarked) [Example 265, (4-(tert-butyl)phenyl)(1-(5-fluoropyridin-2-yl)-4-methyl-6,7-dihydro-1H-imidazo[4,5-c]pyridin-5(4H)-yl)methanone] | 76.5 % control
12 | C[C@H]1Cc2c(nnn2-c2ccc(F)cc2)[C@H](C)N1C(=O)c1cccc(C(F)(F)F)c1Cl [Example 285, (2-chloro-3-(trifluoromethyl)phenyl)((4S,6S)-1-(4-fluorophenyl)-4,6-dimethyl-6,7-dihydro-1H-[1,2,3]triazolo[4,5-c]pyridin-5(4H)-yl)methanone] | −2.6 % control
13 | C[C@H]1Cc2c(nnn2-c2ccccc2)CN1C(=O)c1cccc(C(F)(F)F)c1Cl [Example 288, (S)-(2-chloro-3-(trifluoromethyl)phenyl)(6-methyl-1-phenyl-6,7-dihydro-1H-[1,2,3]triazolo[4,5-c]pyridin-5(4H)-yl)methanone] | 4.4 % control
14 | CC1Cc2c(nnn2-c2ncc(F)cn2)CN1C(=O)c1cccc(C(F)(F)F)c1F (centres unmarked) [Example 311, (2-fluoro-3-(trifluoromethyl)phenyl)(1-(5-fluoropyrimidin-2-yl)-6-methyl-6,7-dihydro-1H-[1,2,3]triazolo[4,5-c]pyridin-5(4H)-yl)methanone] | 63.6 % control
15 | Cc1c(C(=O)N2Cc3nnn(-c4ncc(F)cn4)c3C[C@@H]2C)cccc1C(F)(F)F (single isomer, unassigned) [Example 208, (6S*)-1-(5-Fluoropyrimidin-2-yl)-6-methyl-5-{[2-methyl-3-(trifluoromethyl)phenyl]carbonyl}-4,5,6,7-tetrahydro-1H-[1,2,3]triazolo[4,5-c]pyridine] | 20.9 % control
16 | C[C@H]1Cc2c(nnn2-c2ncccc2F)CN1C(=O)c1cccc(Cl)c1Cl (single isomer, unassigned) [Example 166, (6S*)-5-[(2,3-Dichlorophenyl)carbonyl]-1-(3-fluoropyridin-2-yl)-6-methyl-4,5,6,7-tetrahydro-1H-[1,2,3]triazolo[4,5-c]pyridine] | 0.6 % control
17 | C[C@H]1Cc2c(nnn2-c2ccn[nH]2)[C@H](C)N1C(=O)c1cccc(C(F)(F)F)c1Cl [Example 319, (2-chloro-3-(trifluoromethyl)phenyl)((4S,6S)-4,6-dimethyl-1-(1H-pyrazol-5-yl)-6,7-dihydro-1H-[1,2,3]triazolo[4,5-c]pyridin-5(4H)-yl)methanone] | −6.8 % control
18 | C[C@@H]1Cc2c(nnn2-c2ncccc2F)CN1C(=O)c1cccc(Cl)c1Cl (single isomer, unassigned) [Example 165, (6R*)-5-[(2,3-Dichlorophenyl)carbonyl]-1-(3-fluoropyridin-2-yl)-6-methyl-4,5,6,7-tetrahydro-1H-[1,2,3]triazolo[4,5-c]pyridine] | 60.7 % control
19 | CC1c2ncn(-c3ccccn3)c2CCN1C(=O)c1cccc(C(F)(F)F)c1F (centres unmarked) [Example 19, (2-Fluoro-3-(trifluoromethyl)phenyl)(4-methyl-1-(pyridin-2-yl)-6,7-dihydro-1H-imidazo[4,5-c]pyridin-5(4H)-yl)methanone] | 11.6 % control

Further lines, results first:

Row | PBMC 10 μM (% control) | Structure (SMILES)
20 | −0.1 % control | Cc1cccc(-n2nnc3c2CCN(C(=O)c2cccc(Cl)c2Cl)C3C)n1 (centres unmarked) [Example 233, (2,3-dichlorophenyl)(4-methyl-1-(6-methylpyridin-2-yl)-6,7-dihydro-1H-[1,2,3]triazolo[4,5-c]pyridin-5(4H)-yl)methanone]
21 | 25.2 % control | CC1c2ncn(-c3ccc(F)cn3)c2CCN1C(=O)c1cccc(C(F)(F)F)c1Cl (centres unmarked) [Example 11, (2-Chloro-3-(trifluoromethyl)phenyl)(1-(5-fluoropyridin-2-yl)-4-methyl-6,7-dihydro-1H-imidazo[4,5-c]pyridin-5(4H)-yl)methanone]
22 | −0.5 % control | Cc1ccnc(-n2nnc3c2CCN(C(=O)c2cccc(C(F)(F)F)c2Cl)[C@H]3C)c1 (single isomer, unassigned) [Example 186, (S*)-(2-chloro-3-(trifluoromethyl)phenyl)(4-methyl-1-(4-methylpyridin-2-yl)-6,7-dihydro-1H-[1,2,3]triazolo[4,5-c]pyridin-5(4H)-yl)methanone]
23 | 28.9 % control | CC1c2nnn(-c3ncc(F)cn3)c2CCN1C(=O)c1cccc(C(F)(F)F)c1Cl (centres unmarked) [Example 153, (2-Chloro-3-(trifluoromethyl)phenyl)(1-(5-fluoropyrimidin-2-yl)-4-methyl-6,7-dihydro-1H-[1,2,3]triazolo[4,5-c]pyridin-5(4H)-yl)methanone]
24 | 86.9 % control | Cc1ccc(-n2nnc3c2CCN(C(=O)c2cccc(C(F)(F)F)c2Cl)[C@H]3C)nc1 (single isomer, unassigned) [Example 239, (S*)-(2-chloro-3-(trifluoromethyl)phenyl)(4-methyl-1-(5-methylpyridin-2-yl)-6,7-dihydro-1H-[1,2,3]triazolo[4,5-c]pyridin-5(4H)-yl)methanone]
25 | 20.0 % control | C[C@@H]1Cc2c(nnn2-c2ccccn2)CN1C(=O)c1cccc(C(F)(F)F)c1Cl (single isomer, unassigned) [Example 119, 5-{[2-Chloro-3-(trifluoromethyl)phenyl]carbonyl}-(R*)-6-methyl-1-pyridin-2-yl-4,5,6,7-tetrahydro-1H-[1,2,3]triazolo[4,5-c]pyridine]
26 | −1.1 % control | C[C@H]1c2ncn(-c3ccc(F)cc3)c2CCN1C(=O)c1cccc(C(F)(F)F)c1Cl (single isomer, unassigned) [Example 47]
27 | 4.6 % control | CC1c2nnn(-c3ncccn3)c2CCN1C(=O)c1cccc(C(F)(F)F)c1Cl (centres unmarked) [Example 80, 5-{[2-Chloro-3-(trifluoromethyl)phenyl]carbonyl}-4-methyl-1-pyrimidin-2-yl-4,5,6,7-tetrahydro-1H-[1,2,3]triazolo[4,5-c]pyridine]
28 | 4.5 % control | CC1c2nnn(-c3ncc(F)cn3)c2CCN1C(=O)c1cccc(C(F)(F)F)c1F (centres unmarked) [Example 175, (2-fluoro-3-(trifluoromethyl)phenyl)(1-(5-fluoropyrimidin-2-yl)-4-methyl-6,7-dihydro-1H-[1,2,3]triazolo[4,5-c]pyridin-5(4H)-yl)methanone]
29 | −7.1 % control | Cc1cccnc1-n1nnc2c1CCN(C(=O)c1cccc(C(F)(F)F)c1Cl)[C@@H]2C (single isomer, unassigned) [Example 291, (R*)-(2-chloro-3-(trifluoromethyl)phenyl)(4-methyl-1-(3-methylpyridin-2-yl)-6,7-dihydro-1H-[1,2,3]triazolo[4,5-c]pyridin-5(4H)-yl)methanone]
